This is an account of results in PMC9400227, “αvβ3 integrin-specific exosomes engineered with cyclopeptide for targeted delivery of triptolide against malignant melanoma” (Journal of Nanobiotechnology, 2022).

SMILES strings stand for the structures. Converted amounts (≈) assume the structure as drawn.

One data set has as its system malignant melanoma. On the set-up: method as in PMID 31564801. To be noted: chemotherapeutic drug for MM; cited from earlier work.
Data set [1] relates to A375 cells. As to the kind of experiment: Transwell invasion assay. The settings on record: A375 cells pretreated 6 h, Transwell with Matrigel 24 h. It is filed as cell-based, human. How it is done: Then, the differently treated cells were incubated in the apical Transwell insert (24-well plant covered with Matrigel polycarbonate membranes, pore size 8 μm). Meanwhile, 800 μL of DMEM with 10% FBS used for cell chemotaxis was added to the basolateral champers. After incubation for 24 h, the cells on the top side of the apical chamber were wiped, and then the migrated cells were fixed with 4% paraformaldehyde and stained with 0.1% crystal violet. After that, five random fields under an inverted microscope were visualized, and the migrated cells were counted by ImageJ software.

Data set [2] has as its system A375 cells. As to the kind of experiment: Cell cycle assay (PI staining). Type of data set: cell-based, human. To be noted: 24 h. How it is done: The cell cycle assay was carried out to explore the correlation between mitosis and cytotoxicity. […] The treated cells were then fixed with 70% ethanol for 12 h, washed with PBS 3 times, and stained with propidium iodide/RNase A for 30 min. After that, the red fluorescence of differently treated cells was recorded at 488 nm, and the DNA content of cells was also analyzed.

Data set [3] can be described thus: Plasma pharmacokinetics in tumor-bearing mice. The settings on record: nude, mouse, in vivo, iv, 600 ug/kg. The protocol:
The TP concentrations in blood, heart, liver, spleen, lung, kidney, and tumor tissues were also quantified over time. […] The preparations were injected intravenously at drug-equivalent doses of 600 μg/kg TP. After injection, blood was sampled from the orbital vein at 5 min, 10 min, 15 min, 30 min, 1 h, 2 h, 4 h, 6 h, and 24 h. In addition, heart, liver, spleen, lung, kidney, and tumor tissues were collected at 5 min, 30 min, 1 h, 2 h, 4 h, 6 h, and 24 h. Nine mice were sacrificed at each time point (n = 3), whereas at 10 min and 15 min, the mice were only taken for blood and were not killed. The TP concentration in plasma and tissue homogenate was analyzed with UHPLC-MS/MS.
TP concentrations in cells, plasma, primary organs, and tumors were analyzed using UHPLC-MS/MS (Thermo Fisher Scientific, CA, USA). The separation was performed on an ACQUITY UPLCTM BEH C18 column (2.1 × 100 mm, i.d., 1.7 μm). The column temperature was maintained at 40 °C. The mobile phases were 1% acetic acid aqueous solution (A) and methanol (B). Isocratic elution with 40% A and 60% B was adopted at a flow rate of […]. The temperature and flow rate of dry gas (N2) were 350 °C and 8 L/min, respectively. The pressure of the nebulizer gas (N2) was 40 psi. The capillary voltage was […]. The positive multiple reaction monitoring (MRM) mode was adopted to determine TP and carbamazepine (internal standard, IS). The collision energy was 33 eV for both TP and IS. The precursor-to-product transitions were m/z 361.1 → 105.2 for TP and m/z 237.1 → 194.0 for IS.

For data set [4] the following is noted: mouse, in vivo. How it is done:
Briefly, the mouse bodyweight of all groups was recorded throughout the treatment period. To evaluate systemic safety, after the termination of treatment, the tissues of the heart, liver, spleen, lung, and kidney were collected to calculate organ indexes [mass of the organ (mg)/bodyweight (g)] and to stain for H&E. In addition, orbital blood was sampled for a routine blood test, hepatic function test and renal function test, including RBC, WBC, ALT, and Cr.

Data set [5] deals with A375 cells. As to the kind of experiment: CCK-8 cytotoxicity assay. It is filed as cell-based. The settings on record: Homo sapiens, A-375, 24 h. How it is done:
A375 cells were incubated with different concentrations of TP for 24 h. After that, 10 μL of CCK-8 was added to the treated cells and incubated for another 20 min. The absorbance was detected using a microplate reader.

The subject of data set [6] is A375 cells. As to the kind of experiment: Cell apoptosis assay (Annexin V-APC/7-AAD flow cytometry). The settings on record: 24 h. How it is done:
Then, the cells were trypsinized by pancreatic enzymes without DMSO and resuspended in 500 μL 1× Binding Buffer. The cell suspension was stationarily cultured at room temperature for 15 min in the dark after adding 7-AAD and Annexin V-APC. Subsequently, cell apoptosis and necrosis were detected with a flow cytometer.
A general note: Flow cytometry measures light scatter and fluorescence of single cells or particles in a stream.

A short description of data set [7]: In vivo antitumor efficacy in A375 xenograft tumor model. To be noted: tumor-bearing mice, Kaplan–Meier; control 25.5 days.

As for `CN(C)/N=N/c1[nH]cnc1C(N)=O` [dacarbazine], the total effective rate in the data set on malignant melanoma is on record as 10–15%.
The term AUC(0-inf) denotes the area under the concentration-time curve extrapolated to infinity. The Cmax is the peak of the concentration-time curve. The MRT is a mean duration of stay, worked out from the concentration-time curve. The term clearance denotes the rate of elimination divided by the concentration. Lower therefore signals a low capacity for elimination. Broadly, the half-life is the time in which the quantity being followed falls by half. Read a low half-life as rapid decline. A word on the IC50: it is the midpoint of a concentration-inhibition curve. A lower IC50 goes with greater potency. For `CC(C)[C@]12O[C@H]1[C@@H]1O[C@]13[C@]1(O[C@H]1C[C@H]1C4=C(CC[C@@]13C)C(=O)OC4)[C@@H]2O` [TP, triptolide], the invasion inhibition rate in the data set on A375 cells [1] worked out at 45.54 ± 6.35%. Also, in the data set on A375 cells [2] (control 8.07 ± 0.39%), the “cell population of the S phase” value came to 17.73 ± 0.79%. The “cell population of the G0/G1 phase” value in the data set with A375 cells [2] (control 88.91 ± 0.81%) is recorded as 72.87 ± 3.71%. Besides, in data set [3], the AUC(0-inf) was 1400 ± 81.4 ng·h/mL, the concentration peaked (Cmax) at 612 ± 100 ng/mL, the mean residence time MRT was 3.6 ± 1.8 min and the clearance is 36.6 mL/min/kg. For the same compound, the half-life in data set [3] is 18.6 ± 3.6 min. In data set [4], the “ALT (alanine aminotransferase)” value worked out at 76.25 ± 4.03 U/L; the “Cr (creatinine)” value was determined as 27.76 ± 1.52 µmol/L; the “H&E staining of normal tissues” value is “heart, liver, and kidney were damaged”; the “RBC (red blood cell)” value is 8.11 ± 0.65 × 10^12/L. Further, in data set [4], the “WBC (white blood cell)” value was 6.73 ± 0.51 × 10^9/L, the “mice bodyweight during the treatment period” value is “suffered a bodyweight loss” and the “organ indexes versus control” value is listed as “significantly lower than those of the control mice”. Moreover, in the data set on A375 cells [5], it took 0.0696 µg/mL (≈ 0.193 µM) to reach half-maximal inhibition (IC50). The “apoptosis and necrosis (mortal cells)” value with A375 cells [6] is on record as 22.10 ± 1.66%. The mean survival time in data set [7] is 29.5 days.
